The source of these data is ChEMBL document CHEMBL1145787, “Synthesis and structure-activity relationship of N-substituted 4-arylsulfonylpiperidine-4-hydroxamic acids as novel, orally active matrix metalloproteinase inhibitors for the treatment of osteoarthritis” (J Med Chem, 2003).

The target of test [1] is T1, Interstitial collagenase (Homo sapiens, UniProt P03956).
T1 sequence (P03956 whole entry): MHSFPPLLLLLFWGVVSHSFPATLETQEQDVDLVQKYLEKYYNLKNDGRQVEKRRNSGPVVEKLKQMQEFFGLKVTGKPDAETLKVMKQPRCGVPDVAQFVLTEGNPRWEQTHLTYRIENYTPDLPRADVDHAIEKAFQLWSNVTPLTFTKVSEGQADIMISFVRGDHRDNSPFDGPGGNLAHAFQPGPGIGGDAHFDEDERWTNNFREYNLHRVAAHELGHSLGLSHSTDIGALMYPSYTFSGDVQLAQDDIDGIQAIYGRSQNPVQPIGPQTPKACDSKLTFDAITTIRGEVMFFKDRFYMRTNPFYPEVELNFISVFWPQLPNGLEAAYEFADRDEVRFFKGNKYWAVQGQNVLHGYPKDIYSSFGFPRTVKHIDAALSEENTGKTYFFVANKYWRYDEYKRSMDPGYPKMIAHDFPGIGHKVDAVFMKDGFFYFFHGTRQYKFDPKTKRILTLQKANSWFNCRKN
The test can be described thus: In vitro inhibitory activity against matrix metalloprotease-1.

Test [2] is described as follows: In vivo inhibitory activity against Matrix metalloprotease enzyme by dialysis implant assay, value are relative to activity of CGS-27023 (41+/-4) at 25 mg/kg. po. The test is classed as functional.
The target of test [3] is Disintegrin and metalloproteinase domain-containing protein 17 (Homo sapiens, UniProt P78536). Kind of test: In vitro inhibitory activity against tumor necrosis factor alpha converting enzyme (TACE).
The target in test [4] is Collagenase 3 (Homo sapiens, UniProt P45452).
In test [5] the target is Matrix metalloproteinase-9 (Homo sapiens, UniProt P14780). The test can be described thus: In vitro inhibitory activity against matrix metalloprotease-9.
Test [6] in a line: In vivo inhibitory activity against Matrix metalloprotease enzyme by dialysis implant assay, value is relative to activity of CGS-27023 (53+/-3) at 25 mg/kg. po. Type of test: functional.

pIC50: −log10 of the molar value.

Chain of Matrix metalloproteinase-9 (P14780 whole entry): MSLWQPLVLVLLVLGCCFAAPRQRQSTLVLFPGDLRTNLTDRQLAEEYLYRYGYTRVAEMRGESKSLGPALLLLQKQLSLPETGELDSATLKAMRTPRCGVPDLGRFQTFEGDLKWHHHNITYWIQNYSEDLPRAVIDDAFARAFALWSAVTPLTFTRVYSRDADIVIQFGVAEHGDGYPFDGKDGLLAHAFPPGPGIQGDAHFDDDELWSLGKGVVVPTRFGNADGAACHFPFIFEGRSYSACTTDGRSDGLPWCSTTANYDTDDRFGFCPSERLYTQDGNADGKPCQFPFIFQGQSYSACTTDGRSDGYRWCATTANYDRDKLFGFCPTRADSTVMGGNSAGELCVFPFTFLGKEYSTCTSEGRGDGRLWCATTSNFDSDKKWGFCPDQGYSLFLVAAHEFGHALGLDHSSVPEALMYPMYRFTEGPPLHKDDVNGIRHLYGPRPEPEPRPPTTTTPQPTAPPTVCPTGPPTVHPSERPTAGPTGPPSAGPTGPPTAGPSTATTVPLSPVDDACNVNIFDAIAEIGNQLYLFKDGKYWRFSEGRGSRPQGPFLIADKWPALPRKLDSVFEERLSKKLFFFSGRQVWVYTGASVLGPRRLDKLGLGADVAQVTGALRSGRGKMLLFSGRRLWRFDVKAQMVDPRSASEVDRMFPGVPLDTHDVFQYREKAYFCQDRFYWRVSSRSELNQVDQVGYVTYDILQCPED
Chain of Disintegrin and metalloproteinase domain-containing protein 17 (P78536 whole entry, the tested form may be a part): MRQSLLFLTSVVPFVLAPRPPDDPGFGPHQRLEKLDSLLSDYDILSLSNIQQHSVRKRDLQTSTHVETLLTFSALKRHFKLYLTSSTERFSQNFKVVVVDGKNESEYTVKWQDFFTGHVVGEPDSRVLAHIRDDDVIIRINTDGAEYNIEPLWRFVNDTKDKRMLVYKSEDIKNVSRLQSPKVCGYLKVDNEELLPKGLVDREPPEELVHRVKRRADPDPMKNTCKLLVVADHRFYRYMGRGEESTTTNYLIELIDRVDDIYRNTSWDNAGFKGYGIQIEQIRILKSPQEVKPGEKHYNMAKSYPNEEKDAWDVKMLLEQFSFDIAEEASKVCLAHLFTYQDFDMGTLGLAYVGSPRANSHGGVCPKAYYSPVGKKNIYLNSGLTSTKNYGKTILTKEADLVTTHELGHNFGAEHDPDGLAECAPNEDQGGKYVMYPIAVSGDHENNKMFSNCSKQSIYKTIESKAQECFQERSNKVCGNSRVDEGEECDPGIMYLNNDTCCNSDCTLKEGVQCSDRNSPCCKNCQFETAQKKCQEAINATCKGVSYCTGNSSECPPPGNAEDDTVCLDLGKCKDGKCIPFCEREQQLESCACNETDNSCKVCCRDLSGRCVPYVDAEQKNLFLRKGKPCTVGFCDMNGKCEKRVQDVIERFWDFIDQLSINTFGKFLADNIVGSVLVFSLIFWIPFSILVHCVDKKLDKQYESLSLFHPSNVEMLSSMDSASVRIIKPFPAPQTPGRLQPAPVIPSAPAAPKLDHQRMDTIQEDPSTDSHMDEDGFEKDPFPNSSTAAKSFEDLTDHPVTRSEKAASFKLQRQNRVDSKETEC

On to `COc1ccc(S(=O)(=O)C2(C(=O)NO)CCN(Cc3ccc(-c4cccs4)cc3)CC2)cc1`, for which the pIC50 in test [1] is 6.27; in test [3] it was 6.56; in test [4] it was 8.52; in test [5] it was 7.96. In addition, the inhibition in vivo at 25 mg/kg in test [2] was 12%.
`COc1ccc(S(=O)(=O)C2(C(=O)NO)CCN(CCCc3ccccc3)CC2)cc1` had an inhibition in vivo at 25 mg/kg in test [6] of 9%. In test [5], the pIC50 is 7.89.
